From patent US11970479B2, “3-(1H-pyrazol-4-yl)pyridine allosteric modulators of the M4 muscarinic acetylcholine receptor” (Merck Sharp & Dohme LLC, priority 2018, dated 2024)

Each molecule was assayed against T1, human M4 muscarinic acetylcholine receptor (Homo sapiens, UniProt P08173) (assay: human FLIPR-based M4 PAM assay (CHO-K1 cells with human M4 receptor and Gαqi5, calcium dye fluorescence, EC20 acetylcholine)). Details: inflection point (IP) of the dose response curve, human M4 receptor/Gαqi5, acetylcholine at 20% of maximum response, read-out: M4PAM Hu IP.
T1 construct: expressed in transfected cells
T1 sequence (P08173 1-479): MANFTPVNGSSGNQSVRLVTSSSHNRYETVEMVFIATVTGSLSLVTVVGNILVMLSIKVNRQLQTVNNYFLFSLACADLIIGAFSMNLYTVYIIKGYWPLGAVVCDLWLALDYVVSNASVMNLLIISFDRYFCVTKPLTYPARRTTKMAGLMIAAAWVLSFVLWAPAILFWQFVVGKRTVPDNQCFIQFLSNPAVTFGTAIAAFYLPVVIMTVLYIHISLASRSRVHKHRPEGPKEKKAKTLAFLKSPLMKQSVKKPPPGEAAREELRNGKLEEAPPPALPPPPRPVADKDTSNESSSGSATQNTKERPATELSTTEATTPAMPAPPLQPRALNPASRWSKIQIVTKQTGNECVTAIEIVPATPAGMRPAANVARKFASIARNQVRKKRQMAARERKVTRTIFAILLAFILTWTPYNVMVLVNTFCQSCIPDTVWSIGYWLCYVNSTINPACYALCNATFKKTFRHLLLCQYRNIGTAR
Assay type: cell-based
Experimental: (§1) In a typical experiment the M4 muscarinic acetylcholine receptor modulating activity of the compounds of the present invention was determined in accordance with the following experimental method. CHO-K1 cells stably transfected with human M4 receptor and chimeric G-protein Gαqi5 (Coward P, et al., Analytical Biochemistry, 270:242-248 (1999)) are thawed from liquid N2 storage, resuspended in growth medium, plated in black, clear bottom 384 well plates, and incubated 16-20 hours at 37° C., 5% CO2. On the day of assay, growth medium is removed, the cells are washed 2 times with wash buffer, and cells are incubated in dye loading buffer at 37° C., 5% CO2 for ˜1 hour. Following dye loading the cell plates are placed in a FLIPR Tetra instrument and while monitoring dye fluorescence (excitation […]), 10 uL of test substance at increasing concentrations is added, and fluorescence values are recorded for 4 min. Next, 10 uL of acetylcholine is added (final concentration calculated so as to achieve 20% of the maximum acetycholine response), and the fluorescence reading is continued for 3.5 min. In some cases, a third addition of acetylcholine (final concentration calculated to achieve 70% of the maximal acetylcholine response) is performed. The resulting dose response curves are fit to a 4 parameter logistic equation and the final result is determined as the inflection point (IP) of the curve
as §1, with “CHO-K1” for “In a typical experiment the M4 muscarinic acetylcholine receptor modulating activity of the compounds of the present invention was determined in accordance with the following experimental method. CHO-K1”, “Gαqi5” for “Gαqi5 (Coward P, et al., Analytical Biochemistry, 270:242-248 (1999))”, “performed.” for “performed. The resulting dose response curves are fit to a 4 parameter logistic equation and the final result is determined as the inflection point (IP) of the curve”

Row | SMILES | EC50 [nM]
1 | COc1cc2ccc(-c3nc(C#N)c(C)cc3-c3cnn(CCC(C)(C)OC)c3)cc2nn1 [Example 32, 6-(3-methoxycinnolin-7-yl)-5-[1-(3-methoxy-3-methylbutyl)-1H-pyrazol-4-yl]-3-methylpyridine-2-carbonitrile] | 113
2 | COc1cc2ccc(-c3nc(C)ccc3-c3cnn(CC4CCC(F)(F)CC4)c3)cc2nn1 [Example 17, 7-(3-{1-[(4,4-difluorocyclohexyl)methyl]-1H-pyrazol-4-yl}-6-methylpyridin-2-yl)-3-methoxycinnoline] | 56
3 | CC(C)CCn1cc(-c2c(Cl)ccnc2-c2ccc3cccnc3c2)cn1 [Example 64, 7-{4-chloro-3-[1-(3-methylbutyl)-1H-pyrazol-4-yl]pyridin-2-yl}quinoline] | 295
4 | COc1cc2ccc(-c3nc(C)ccc3-c3cnn(CC4CCCCC4)c3)cc2nn1 [Example 107, 7-{3-[1-(cyclohexylmethyl)-1H-pyrazol-4-yl]-6-methylpyridin-2-yl}-3-methoxycinnoline] | 16
5 | Cc1ccc(-c2cnn(CC34CCC(CC3)CC4)c2)c(-c2ccc3cccnc3c2)n1 [Example 14, 7-{3-[1-(bicyclo[2.2.2]oct-1-ylmethyl)-1H-pyrazol-4-yl]-6-methylpyridin-2-yl}quinoline] | 20
6 | CSc1cnc(-c2ccc3cccnc3c2)c(-c2cnn(CCC(C)C)c2)c1 [Example 76, 7-{3-[1-(3-methylbutyl)-1H-pyrazol-4-yl]-5-(methylsulfanyl)pyridin-2-yl}quinoline] | 63
7 | COc1cc2ccc(-c3nc(C)ccc3-c3cnn(CC4(C)CCOCC4)c3)cc2nn1 [Example 87, 3-methoxy-7-(6-methyl-3-{1-[(4-methyltetrahydro-2H-pyran-4-yl)methyl]-1H-pyrazol-4-yl}pyridin-2-yl)cinnoline] | 63
8 | Cc1ccnc(-c2ccc3cccnc3c2)c1-c1cnn(CCC(C)C)c1 [Example 50, 7-{4-methyl-3-[1-(3-methylbutyl)-1H-pyrazol-4-yl]pyridin-2-yl}quinoline] | 188
9 | COc1cc2ccc(-c3nc(C)c(C)cc3-c3cnn(CCC(C)(C)OC)c3)cc2nn1 [Example 34, 3-methoxy-7-{3-[1-(3-methoxy-3-methylbutyl)-1H-pyrazol-4-yl]-5,6-dimethylpyridin-2-yl}cinnoline] | 141
10 | COc1cc2ccc(-c3nc(C)ccc3-c3cnn(CC4CC(F)(F)C4)c3)cc2nn1 [Example 78, 7-(3-{1-[(3,3-difluorocyclobutyl)methyl]-1H-pyrazol-4-yl}-6-methylpyridin-2-yl)-3-methoxycinnoline] | 190
11 | COc1cc2ccc(-c3nc(C)ccc3-c3cnn(C4CCC(F)(F)CC4)c3)cc2nn1 [Example 108, 7-{3-[1-(4,4-difluorocyclohexyl)-1H-pyrazol-4-yl]-6-methylpyridin-2-yl}-3-methoxycinnoline] | 142
12 | N#Cc1ccc(-c2cnn(CC3(C(F)(F)F)CC3)c2F)c(-c2ccc3cccnc3c2)n1 [Example 59, 5-(5-fluoro-1-{[1-(trifluoromethyl)cyclopropyl]methyl}-1H-pyrazol-4-yl)-6-quinolin-7-ylpyridine-2-carbonitrile] | 57
13 | COc1cc2ccc(-c3nc(C)ccc3-c3cnn(CC4(C)CCC(F)(F)CC4)c3)cc2nn1 [Example 22, 7-(3-{1-[(4,4-difluoro-1-methylcyclohexyl)methyl]-1H-pyrazol-4-yl}-6-methylpyridin-2-yl)-3-methoxycinnoline] | 16
14 | Cc1ccc(-c2cnn(CC3CCC(F)(F)CC3)c2)c(-c2ccc3cccnc3c2)n1 [Example 16, 7-(3-{1-[(4,4-difluorocyclohexyl)methyl]-1H-pyrazol-4-yl}-6-methylpyridin-2-yl)quinoline] | 124

Further lines, results first:

Row | EC50 [nM] | SMILES
15 | 131 | N#Cc1ccc(-c2cnn(CC(F)(F)C(F)F)c2)c(-c2ccc3cccnc3c2)n1 [Example 92, 6-quinolin-7-yl-5-[1-(2,2,3,3-tetrahydropropyl)-1H-pyrazol-4-yl]pyridine-2-carbonitrile]
16 | 92 | Cc1ccc2ccc(-c3nc(C#N)ccc3-c3cnn(CC(C)(C)C)c3)cc2n1 [Example 39, 5-[1-(2,2-dimethylpropyl)-1H-pyrazol-4-yl]-6-(2-methylquinolin-7-yl)pyridine-2-carbonitrile]
17 | 52 | CC(C)(C)CCn1cc(-c2ccc(C#N)nc2-c2ccc3cccnc3c2)cn1 [Example 89, 5-[1-(3,3-dimethylbutyl)-1H-pyrazol-4-yl]-6-quinolin-7-ylpyridine-2-carbonitrile]
18 | 51 | CC(C)(C)Cn1ncc(-c2ccc(C#N)nc2-c2ccc3cccnc3c2)c1F [Example 58, 5-[1-(2,2-dimethylpropyl)-5-fluoro-1H-pyrazol-4-yl]-6-quinolin-7-ylpyridine-2-carbonitrile]
19 | 41 | COc1cc2ccc(-c3nc(C#N)ccc3-c3cnn(CC(C)(C)C)c3)cc2nn1 [Example 38, 5-[1-(2,2-dimethylpropyl)-1H-pyrazol-4-yl]-6-(3-methoxycinnolin-7-yl)pyridine-2-carbonitrile]
20 | 57 | COc1cc2ccc(-c3nc(C)ccc3-c3cnn(CC4(C)CCOC4)c3)cc2nn1 (single isomer, unassigned) [Example 98, 3-methoxy-7-(6-methyl-3-{1-[(3-methyltetrahydrofuran-3-yl)methyl]-1H-pyrazol-4-yl}pyridin-2-yl)cinnoline]
21 | 70 | Cc1ccc(-c2cnn(CCC(C)(C)F)c2)c(-c2ccc3cccnc3c2)n1 [Example 2, 7-(3-(1-(3-fluoro-3-methylbutyl)-1H-pyrazol-4-yl)-6-methylpyridin-2-yl)quinoline]
22 | 108 | CC(C)(C)Cn1cc(-c2cc(F)cnc2-c2ccc3cccnc3c2)cn1 [Example 55, 7-{3-[1-(2,2-dimethylpropyl)-1H-pyrazol-4-yl]-5-fluoropyridin-2-yl}quinoline]
23 | 190 | CC(C)(CCn1cc(-c2ccc(C#N)nc2-c2ccc3cccnc3c2)cn1)C(F)(F)F [Example 91, 6-quinolin-7-yl-5-[1-(4,4,4-trifluoro-3,3-dimethylbutyl)-1H-pyrazol-4-yl]pyridine-2-carbonitrile]
24 | 208 | CC(C)(C)Cn1cc(-c2ccc(C#N)nc2-c2cnc3cccnc3c2)cn1 [Example 40, 5-[1-(2,2-dimethylpropyl)-1H-pyrazol-4-yl]-6-(1,5-naphthyridin-3-yl)pyridine-2-carbonitrile]
25 | 88 | Cc1ccc(-c2cnn(CC3CCC(F)CC3)c2)c(-c2ccc3cccnc3c2)n1 (stereo not shown) [Example 18, 7-(3-{1-[(4-fluorocyclohexyl)methyl]-1H-pyrazol-4-yl}-6-methylpyridin-2-yl)quinoline]
26 | 39 | CC(C)(C)Cn1cc(-c2ccc(C#N)nc2-c2ccc3cc(F)cnc3c2)cn1 [Example 41, 5-[1-(2,2-dimethylpropyl)-1H-pyrazol-4-yl]-6-(3-fluoroquinolin-7-yl)pyridine-2-carbonitrile]
27 | 61 | N#Cc1ccc(-c2cnn(CC3(C(F)(F)F)CC3)c2)c(-c2ccc3cccnc3c2)n1 [Example 44, 6-quinolin-7-yl-5-(1-{[1-(trifluoromethyl)cyclopropyl]methyl}-1H-pyrazol-4-yl)pyridine-2-carbonitrile]
28 | 46 | COc1cc2ccc(-c3nc(C)ccc3-c3cnn(CC4(C)CCC4)c3)cc2nn1 [Example 25, 3-methoxy-7-(6-methyl-3-{1-[(1-methylcyclobutyl)methyl]-1H-pyrazol-4-yl}pyridin-2-yl)cinnoline]
